Data reported in patent publication US11395488B2, “Use of compositions comprising pelargonic acid and specific non ionic surfactants for inhibiting the growth of suckers on plants” (BELCHIM CROP PROTECTION NV, priority 2016, dated 2022).

What was measured:
suckers on tobacco plant = test: Use of pelargonic acid for inhibiting the growth of suckers (Example 1, FIG. 1); type: in vivo, tobacco plant of the Burley variety; details: Burley tobacco; pelargonic acid applied at 0.5 g/l to 50.0 g/l; FIG. 1B
From the text: To better exemplify reference is made to FIGS. 1A and 1B, which show a tobacco plant (100) of the Burley variety. […] It can be observed that at full floral development (i.e. ˜3 to 4 months) suckers (150) started to proliferate and grew into auxiliary stems.

[1] = system: suckers on tobacco plants; test: Treatment of tobacco plants with pelargonic acid: sucker growth inhibition (Example 3); type: in vivo, tobacco plants of the Burley and Virginia; details: PA 3.4, 5.1, 6.8 g/l; V 450-460 l/ha; interval of 7 days between treatments; across all plants
Procedure: (§1) In an experimental embodiment tobacco plants of the Burley and Virginia were treated with a Volume (V) of 450-460l/ha with a composition comprising pelargonic acid (PA) at different concentrations (e.g., 3.4 g/l, 5.1 g/l and 6.8 g/l) with an interval of 7 days between treatments; the exact experimental details can be found in Table 1.

tobacco plants = test: Treatment of tobacco plants with pelargonic acid: phytotoxicity (Example 3); type: in vivo, tobacco plants of the Burley and Virginia; details: PA 3.4, 5.1, 6.8 g/l; V 450-460 l/ha; interval of 7 days between treatments
Procedure: as §1

`CCCCCCCCC(=O)O` [pelargonic acid] was tested, and the sucker growth (suckers on tobacco plant) was “fully inhibited”, the sucker growth inhibition [1] was greater than 90% and the “phytotoxicity or adverse ecological effects” value (tobacco plants) was “no phytotoxicity or adverse ecological effects were observed”.
